Experimental data reported in the NIST ThermoML archive (doi:10.1016/j.fluid.2011.01.001).
± gives the expanded uncertainty stated by the source.

Columns and labels:
[1] = mn = molality of the nth substance listed, in mol/kg; settings: 101 kPa, Liquid, Vibrating tube method
[2] = refractive index (Na D-line) (dimensionless); settings: 101.33 kPa, Liquid, Standard Abbe refractometry
[3] = 101.33 kPa, Liquid, Vibrating tube method

CCCCCCn1cc[n+](C)c1.CCOS(=O)(=O)[O-] [1-hexyl-3-methylimidazolium ethyl sulfate] + O
mass density [kg/m3], [1]
Settings | 298.15 K | 308.15 K | 318.15 K | 328.15 K
m1 = 0.0113 | 997.55 ± 10 | 994.52 ± 10 | 990.63 ± 10 | 985.41 ± 10
m1 = 0.0347 | 998.58 ± 10 | 995.5 ± 10 | 991.48 ± 10 | 986.2 ± 10
m1 = 0.0419 | 998.9 ± 10 | 995.8 ± 10 | 991.73 ± 10 | 986.44 ± 10
m1 = 0.0614 | 999.73 ± 10 | 996.6 ± 10 | 992.41 ± 10 | 987.07 ± 10
m1 = 0.0677 | 1000 ± 10 | 996.84 ± 10 | 992.62 ± 10 | 987.28 ± 10
m1 = 0.1085 | 1001.65 ± 10 | 998.38 ± 10 | 994 ± 10 | 988.57 ± 10
m1 = 0.2177 | 1005.67 ± 10 | 1002.07 ± 10 | 997.31 ± 10 | 991.8 ± 10
m1 = 0.3501 | 1010 ± 10 | 1005.78 ± 10 | 1000.86 ± 10 | 995.29 ± 10
m1 = 0.433 | 1012.3 ± 10 | 1007.9 ± 10 | 1002.92 ± 10 | 997.21 ± 10
m1 = 0.5618 | 1015.56 ± 10 | 1010.89 ± 10 | 1005.91 ± 10 | 1000.07 ± 10
m1 = 0.7474 | 1019.59 ± 10 | 1014.5 ± 10 | 1009.79 ± 10 | 1003.7 ± 10
m1 = 0.8741 | 1021.74 ± 10 | 1016.59 ± 10 | 1012.03 ± 10 | 1005.94 ± 10
m1 = 1.17 | 1025.65 ± 10 | 1020.79 ± 10 | 1016.28 ± 10 | 1010.91 ± 10
m1 = 1.343 | 1027.8 ± 10 | 1023.36 ± 10 | 1018.31 ± 10 | 1013.65 ± 10

CCCCCCn1cc[n+](C)c1.COS(=O)(=O)[O-] [1-hexyl-3-methylimidazolium methyl sulfate]
Settings | mass density, 298.15 K [kg/m3] | mass density, 308.15 K [kg/m3] | mass density, 318.15 K [kg/m3] | mass density, 328.15 K [kg/m3] | refractive index, 298.15 K | refractive index, 308.15 K | refractive index, 318.15 K | refractive index, 328.15 K
[2] | – | – | – | – | 1.4733 ± 0.0006 | 1.4708 ± 0.0006 | 1.4683 ± 0.0006 | 1.4654 ± 0.0006
[3] | 1156.93 ± 10 | 1150.32 ± 10 | 1143.84 ± 10 | 1137.38 ± 10 | – | – | – | –

CCCCCCn1cc[n+](C)c1.COS(=O)(=O)[O-] [1-hexyl-3-methylimidazolium methyl sulfate] + O
mass density [kg/m3], [1]
Settings | 298.15 K | 308.15 K | 318.15 K | 328.15 K
m1 = 0.0118 | 997.55 ± 10 | 994.47 ± 10 | 990.58 ± 10 | 985.32 ± 10
m1 = 0.0314 | 998.37 ± 10 | 995.17 ± 10 | 991.17 ± 10 | 985.78 ± 10
m1 = 0.0497 | 999.1 ± 10 | 995.8 ± 10 | 991.69 ± 10 | 986.21 ± 10
m1 = 0.076 | 1000.09 ± 10 | 996.65 ± 10 | 992.4 ± 10 | 986.8 ± 10
m1 = 0.0937 | 1000.68 ± 10 | 997.19 ± 10 | 992.86 ± 10 | 987.21 ± 10
m1 = 0.154 | 1002.59 ± 10 | 998.9 ± 10 | 994.35 ± 10 | 988.41 ± 10
m1 = 0.3076 | 1006.3 ± 10 | 1002.6 ± 10 | 997.53 ± 10 | 990.95 ± 10
m1 = 0.5023 | 1010.81 ± 10 | 1006.62 ± 10 | 1001.55 ± 10 | 994.25 ± 10
m1 = 0.6255 | 1013.9 ± 10 | 1009.13 ± 10 | 1003.9 ± 10 | 996.3 ± 10
m1 = 0.7024 | 1015.42 ± 10 | 1010.54 ± 10 | 1005.28 ± 10 | 997.49 ± 10
m1 = 0.8838 | 1020.02 ± 10 | 1014 ± 10 | 1008.57 ± 10 | 1000.18 ± 10
m1 = 1.071 | 1024.02 ± 10 | 1017.44 ± 10 | 1012.23 ± 10 | 1002.98 ± 10
m1 = 1.284 | 1028.91 ± 10 | 1021.24 ± 10 | 1015.5 ± 10 | 1005.89 ± 10
m1 = 1.544 | 1034.22 ± 10 | 1026.15 ± 10 | 1020.01 ± 10 | 1009 ± 10
